Assay results taken from patent US20260207585A1, “METHODS AND COMPOSITIONS FOR THE TREATMENT OF PARKINSON'S DISEASE, HUNTINGTON'S DISEASE, AMYOTROPHIC LATERAL SCLEROSIS, AND LEARNING DISORDERS” (Cedars-Sinai Medical Center, priority 2022, published 2026).
Read-outs that look alike come from different tables or passages of the source.

Tests used:
Format in all cases: biochemical
NSD3 = biological target: T1, NSD3 (Homo sapiens, UniProt Q9BZ95); test: Methyltransferase inhibition panel: NSD3
T1 sequence (Q9BZ95 1-1437): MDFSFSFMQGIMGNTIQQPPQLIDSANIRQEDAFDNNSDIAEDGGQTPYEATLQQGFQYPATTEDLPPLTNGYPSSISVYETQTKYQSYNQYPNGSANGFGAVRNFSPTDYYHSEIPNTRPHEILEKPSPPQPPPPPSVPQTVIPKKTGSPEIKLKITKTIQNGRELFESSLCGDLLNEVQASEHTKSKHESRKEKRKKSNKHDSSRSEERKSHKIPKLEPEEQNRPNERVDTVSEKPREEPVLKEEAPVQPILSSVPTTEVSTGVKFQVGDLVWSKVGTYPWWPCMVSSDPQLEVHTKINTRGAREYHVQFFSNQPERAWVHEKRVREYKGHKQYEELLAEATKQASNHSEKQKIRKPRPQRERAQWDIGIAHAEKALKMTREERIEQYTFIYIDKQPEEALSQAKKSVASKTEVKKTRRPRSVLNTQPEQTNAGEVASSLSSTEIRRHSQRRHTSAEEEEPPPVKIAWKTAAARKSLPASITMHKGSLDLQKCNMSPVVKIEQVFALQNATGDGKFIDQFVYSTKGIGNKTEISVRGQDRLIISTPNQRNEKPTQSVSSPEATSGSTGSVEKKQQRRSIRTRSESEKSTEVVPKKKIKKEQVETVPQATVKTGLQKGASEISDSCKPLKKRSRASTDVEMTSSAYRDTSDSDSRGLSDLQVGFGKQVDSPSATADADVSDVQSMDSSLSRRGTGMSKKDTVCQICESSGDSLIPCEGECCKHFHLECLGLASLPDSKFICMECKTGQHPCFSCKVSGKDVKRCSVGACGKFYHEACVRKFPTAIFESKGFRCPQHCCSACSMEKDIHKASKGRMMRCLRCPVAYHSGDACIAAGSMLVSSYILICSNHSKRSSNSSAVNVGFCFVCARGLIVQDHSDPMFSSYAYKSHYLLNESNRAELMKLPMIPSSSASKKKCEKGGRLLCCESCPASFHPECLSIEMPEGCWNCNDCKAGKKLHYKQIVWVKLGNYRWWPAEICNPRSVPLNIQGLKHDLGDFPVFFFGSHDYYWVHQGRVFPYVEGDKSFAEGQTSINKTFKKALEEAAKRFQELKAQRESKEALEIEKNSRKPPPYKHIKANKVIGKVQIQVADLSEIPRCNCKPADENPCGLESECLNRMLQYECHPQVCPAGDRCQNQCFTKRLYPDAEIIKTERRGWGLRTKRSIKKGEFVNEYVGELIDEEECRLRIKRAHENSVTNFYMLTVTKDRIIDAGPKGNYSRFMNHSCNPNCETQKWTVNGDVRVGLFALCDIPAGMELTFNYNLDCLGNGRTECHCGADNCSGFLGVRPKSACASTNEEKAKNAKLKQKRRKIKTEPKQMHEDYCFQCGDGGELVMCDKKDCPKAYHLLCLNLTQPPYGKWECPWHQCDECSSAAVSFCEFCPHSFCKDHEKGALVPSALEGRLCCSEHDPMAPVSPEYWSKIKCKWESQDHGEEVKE
Protocol: (§1) The ability of ETP69 to inhibit methyltransferases was tested.

SET8 = biological target: T2, SET8 (Homo sapiens, UniProt Q9NQR1); test: Methyltransferase inhibition panel: SET8
T2 sequence (Q9NQR1 1-393): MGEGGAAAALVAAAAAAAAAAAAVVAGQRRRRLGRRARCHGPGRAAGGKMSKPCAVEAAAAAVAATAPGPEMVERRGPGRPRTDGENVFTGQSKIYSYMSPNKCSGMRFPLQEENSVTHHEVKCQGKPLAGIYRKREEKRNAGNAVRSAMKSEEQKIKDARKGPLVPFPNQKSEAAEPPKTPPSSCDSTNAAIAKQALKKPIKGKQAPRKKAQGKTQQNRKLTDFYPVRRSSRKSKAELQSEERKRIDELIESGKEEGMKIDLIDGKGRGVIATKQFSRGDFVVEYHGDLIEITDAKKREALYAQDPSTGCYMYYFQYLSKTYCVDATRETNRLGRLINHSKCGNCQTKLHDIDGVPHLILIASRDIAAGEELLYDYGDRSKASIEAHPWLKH
Protocol: as §1

PRMT8 = PRMT8 (Homo sapiens, UniProt Q9NR22); test: Methyltransferase inhibition panel: PRMT8
Protocol: as §1

[1] = NT1721 20 μM, substrate Nucleosomes 0.05 mg/mL
[2] = read-out: Enzyme % Activity (relative to DMSO controls) Data 1
[3] = read-out: Enzyme % Activity (relative to DMSO controls) Data 2

Chain of PRMT8 (Q9NR22 whole entry): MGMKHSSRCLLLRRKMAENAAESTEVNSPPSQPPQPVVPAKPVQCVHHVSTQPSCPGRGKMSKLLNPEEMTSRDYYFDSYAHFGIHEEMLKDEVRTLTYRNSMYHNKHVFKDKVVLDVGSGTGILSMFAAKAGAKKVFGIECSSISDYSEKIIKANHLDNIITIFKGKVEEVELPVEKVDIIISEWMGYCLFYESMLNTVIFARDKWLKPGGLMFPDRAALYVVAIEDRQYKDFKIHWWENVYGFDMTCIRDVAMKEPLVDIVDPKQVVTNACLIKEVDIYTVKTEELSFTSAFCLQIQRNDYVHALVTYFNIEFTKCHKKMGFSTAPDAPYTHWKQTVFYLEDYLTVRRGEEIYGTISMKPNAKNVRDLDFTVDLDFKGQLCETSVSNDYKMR

For `CN1C(=O)[C@@]23C[C@](C)(C#N)[C@H](c4ccc5c(c4)OCO5)N2C(=O)[C@]1(C)SS3` (racemic) [ETP69, Rac-(3S,6S,7S,8aS)-6-(benzo[d][1,3]dioxol-5-yl)-2,3,7-trimethyl-1,4-dioxohexahydro-6H-3,8a-epidithiopyrrolo[1,2-a]pyrazine-7-carbonitrile], the “Enzyme % Activity (relative to DMSO controls) Data 1” value (NSD3; [1]) was 10.33%, the “Enzyme % Activity (relative to DMSO controls) Data 2” value (NSD3; [1]) was 10.21% and the “inhibition relative to DMSO controls” value (NSD3; summary of Table 1) was “at least 7500”. The remaining activity at 20 µM (SET8; [2]) was 92.3%, the remaining activity at 20 µM (SET8; [3]) was 92.6% and the remaining activity at 20 µM (PRMT8; [2]) was 95.7%. For the same molecule, the remaining activity at 20 µM (PRMT8; [3]) was 94.7%.
